Like-named read-outs stand apart in the source and are kept apart here.
Tests used:
[1] = tested on: Salmonella typhimurium strain TA100
Procedure: (§1) The Ames test was performed according to the pre-incubation method described by Mortelmans and Zeiger ([2000]), albeit with slight modifications. Briefly, the lyophilized Salmonella typhimurium strains TA100 (lot number 5220D, Trinova, Gießen, Germany) and TA1535 (lot number 5209D, Trinova) were cultured overnight in 50 ml nutrient broth no. 2 (Thermo Scientific) at 37 °C. Subsequently, the bacterial cultures were shaken for two hours at 125 rpm and 37 °C until the suspension reached an optical density of 1–1.3 at 600 nm. Then, 100 µl of the suspension were mixed with 500 µl of sodium phosphate buffer (final concentrations: 12 mM NaH2PO4, 88 mM Na2HPO4 [pH 7.4]; all components purchased from Carl Roth) and 50 µl of the test compound. Sodium azide (Sigma-Aldrich) was used as positive control and dissolved in ultrapure water. The bacteria were mixed and incubated with the test compounds for 30 min at 37 °C prior to being plated and further incubated for 48 h at 37 °C. Finally, the number of grown revertant colonies was counted.

[2] = tested on: Salmonella typhimurium strain TA1535
Procedure: as §1

DNA = tested on: DNA; parameters: method as in Tamir et al. [1996]; details: at least tenfold higher than NO-heme; ref Tamir et al. [1996]; cited from earlier work
CHO-K1 cells = format: cell-based, Chinese hamster
Procedure: (§2) The investigation of potential cytotoxic effects induced by NO-heme in CHO-K1 cells was performed using a commercial cell proliferation kit based on the MTT reagent obtained from Roche Diagnostics and performed according to the manufacturer's instructions. Briefly, 3.5 × 10^4 cells/well were seeded in 96-well plates (Greiner Diagnostic, Balingen, Germany). Approximately 24 h later, the cells were treated with different NO-heme and acetone concentrations for another 24 h. Subsequently, cells were incubated with the MTT solution for 4 h, before 100 µl DMSO (Carl Roth) were added and absorbance was measured at a wavelength of 570 nm using a microplate reader (EL600; BioTek Instruments, Winooski, USA). The mitochondrial metabolic activity of NO-heme-treated cells was thereby compared to the vehicle control. The HPRT assay was performed according to OECD test guideline no. 476 (OECD [2016]) without exogenous metabolic activation. Briefly, 5 × 10^5 cells per sample were seeded in a 75 cm^2 cell culture flask (Greiner Bio-One) containing 15 ml of McCoy’s 5A medium. […] After another period of 9 days, colonies resistant to 6-thioguanine were fixed with methanol (Carl Roth), stained with methylene blue (Carl Roth) and counted. For the final evaluation of the test, the absolute number of mutations per one million CHO-K1 cells was calculated.

[3] = tested on: heme oxygenase 1 (HO-1) in Caco-2 cells; assay: HO-1 expression as surrogate marker of cellular uptake (SDS-PAGE and Western blotting); format: cell-based, human; details: 50 and 100 µM, 24-h incubation, compared to control samples
Procedure: (§3) The cellular uptake of NO-heme and hematin was qualitatively investigated by using the expression of the intracellular heme-degrading protein heme oxygenase 1 (HO-1) as surrogate marker. Its expression was analyzed via SDS-PAGE and Western blotting in NO-heme-treated Caco-2 cells. Beforehand, the cytotoxicity of the heme species as well as solvents was evaluated using a commercial kit measuring cell viability based on the WST-1 reagent obtained from Roche Diagnostics (Mannheim, Germany) and performed according to the manufacturer's instructions. Briefly, 5 × 10^4 cells/well were seeded in 96-well plates (TPP) and incubated for 24 h. Then, the cells were treated with the test substances in triplicate for a further 24 h before they were washed with phosphate buffered saline (PBS) and incubated for 1.5 h with 100 μl/well medium supplemented with 10% (v/v) WST-1 reagent. Finally, absorption was measured at 450 nm (with a reference wavelength at 650 nm). For HO-1 expression analysis, Caco-2 cells (3 × 10^5/3.5 cm plate) were treated for 24 h as mentioned above, with 2% acetone/H2O and 2% acetone/NaOH serving as solvent controls. […] After final washings steps, proteins were detected with enhanced chemoluminescence using an Azure 300 CL imaging system (Azure biosystems, Dublin, USA). […]

Caco-2 cells [4] = assay: WST-1 cytotoxicity assay; format: cell-based, human; details: 50 µM
Procedure: as §3

Caco-2 cells [5] = assay: Single cell electrophoresis assay (comet assay), Caco-2; format: cell-based, human; details: for genotoxic effects (tail intensity): Caco-2 cells, 1 h treatment, increasing concentrations of heme species, nitrite control 100 µM
Procedure: (§4) DNA-damaging effects of NO-heme were determined in Caco-2 and BALB/c 3T3 cells using the single cell electrophoresis assay (comet assay). […] The comet assay was performed as previously reported (Briviba et al. [2016]), with the following modifications: 2.15 × 10^4 cells/well were seeded in 6-well plates (Corning, Kennebunk, USA) and cultivated for five days. At day six after seeding, the cells were treated for 1 h with the different test substances diluted in Hank’s Balanced Salt Solution (HBSS; Lonza). Hydrogen peroxide and iron sulfate (both from Sigma-Aldrich) served as positive controls. After treatment, the cells were prepared as previously published (Briviba et al. [2016]) and incubated in a specific lysis buffer (100 mM Na2EDTA, 1% Triton X-100, […] NaCl, 1% lauroyl sarcosine sodium salt, 10 mM tris(hydroxymethyl)aminomethane [TRIS] and 10% dimethyl sulfoxide; all purchased from Merck, Darmstadt, Germany) for 1 h at 4 °C. Then, microscope slides were incubated in electrophoresis buffer (1 mM Na2EDTA, 300 mM NaOH; Merck) for 20 min at room temperature, followed by an electrophoresis run at 25 V and 300 mA for 40 min. Thereafter, the slides were washed three times with TRIS buffer (0.4 M; pH 7.5) and stained using 85 µl of a 4,6-diamidino-2-phenylindole solution (5 µg ml^−1; Merck). For quantification of the results, 100 cells per slide were analyzed using a DM 400 B fluorescence microscope (Leica, Wetzlar, Germany) connected to the Comet Assay II Image Analysis System (Perceptive Instruments, Halstedt, UK).

[6] = exposure to UV light and oxygen (sunlight and air), room temperature
Procedure: For the analysis of stability, NO-heme was stored in 15 ml centrifuge tubes (Greiner Bio-One, Frickenhausen, Germany) under different light and atmospheric conditions. […] The final solution was further diluted in 80% acetone/H2O to a final volume of 12.5 ml and allocated to four centrifuge tubes containing 3 ml each. Two of the NO-heme samples were stored in the dark at room temperature, flushed with nitrogen and additionally sealed with thermoplastic film (Parafilm® M, Sigma-Aldrich). The other samples were incubated at room temperature and exposed to sunlight and air. The NO-heme content of each tube was analyzed by UV–Vis and FTIR spectroscopy after 0, 2, 4 and 24 h of incubation.

BALB/c 3T3 cells [7] = assay: Colony forming efficiency (CFE) cytotoxicity assay; details: for concentration at which cytotoxicity starts: CFE
Procedure: Briefly, 200 BALB/c 3T3 cells were seeded in 60 mm dishes (TPP) filled with 4 ml MEM medium. […] 3-Methylcholanthrene (MCA, Sigma-Aldrich) dissolved in DMSO was used as positive control. On day 4, the medium was removed and 4 ml fresh culture medium were added. On day 9, the cells were washed with saline, fixed with 4 ml ice-cold methanol (Carl Roth) for 10 min and then stained with Giemsa solution (Carl Roth) for 30 min. Finally, the stained dishes were washed with water and air-dried before cell colonies with a diameter of ≥ 2 mm were counted.

BALB/c 3T3 cells [8] = assay: BALB/c 3T3 cell transformation assay (CTA); details: for cell-transforming potential: controls 61.54 µM DHAA
Procedure: The CTA was performed as previously described (Sasaki et al. [2012a]) and began with the seeding of 2 × 10^4 BALB/c 3T3 cells in 100 mm dishes (TPP) filled with 10 ml MEM medium. On day 1, the cells were incubated with the test substances for three days, followed by a medium change on day 4. From now on, the cells were incubated in DMEM/HAM’s F-12 medium supplemented with 2% (v/v) FCS, 100 µg ml^−1 streptomycin, 100 IU ml^−1 penicillin (all components were obtained from Biochrom) and 2 µg ml^−1 bovine pancreas insulin solution (Sigma-Aldrich). On days 7, 10, 14, 17, 21 and 24, the medium was changed and the cells were finally fixed on day 31 using ice-cold methanol. Lastly, the plates were stained with Giemsa solution and the number of type III foci formed was counted using a stereo microscope (SZX2-ILLT; Olympus, Hamburg, Germany).

[9] = tested on: V79 Chinese hamster lung fibroblasts; parameters: method as in Cajelli et al. ([1987]); details: ref Cajelli et al. ([1987]); cited from earlier work
BALB/c 3T3 cells [10] = assay: Single cell electrophoresis assay (comet assay), BALB/c 3T3; format: cell-based, murine; details: 1 h treatment; for increase of the tail intensity (genotoxic effect): heme species up to 100 µM, nitrite control 100 µM
Procedure: as §4

[11] = ref Kodama et al. [1976]; Tsuda and Hasegawa [1990]; Stevanovic et al. [2000]; cited from earlier work
murine cell lines = details: ref Kodama et al. [1976], Görsdorf et al. [1990]; cited from earlier work
CHO-K1-BH4 cells = assay: In vitro mammalian cell gene mutation test (HPRT assay); format: cell-based, Chinese hamster; details: 4 h treatment, without metabolic activation, 100 µM as well as 200 µM heme species, nitrite control 100 µM
Procedure: as §2

BALB/c 3T3 cells [12] = details: ref Kodama et al. [1976]; Tsuda and Hasegawa [1990]; Stevanovic et al. [2000]; cited from earlier work
[13] = TA100, pre-incubation method, up to 300 µM NO-heme and hematin, 1.54 mM NaN3, 100 µM NaNO2
[14] = TA1535, pre-incubation method, up to 300 µM NO-heme and hematin, 1.54 mM NaN3, 100 µM NaNO2

## [N-]=[N+]=[N-].[Na+] [NaN3, Sodium azide]
[1]; [13]
  mutagenic effects (revertant colonies): Except for the positive control NaN3, no mutagenic effects were detected
[2]; [14]
  mutagenic effects (revertant colonies): Except for the positive control NaN3, no mutagenic effects were detected

## O=NOO [peroxynitrite]
DNA
  concentration needed to induce DNA strand breaks: 1 mM

## nitrosylated heme [NO-heme]
CHO-K1 cells; 50 µM
  relative cell viability: 87%
CHO-K1 cells; 200 µM
  relative cell viability: 59%
[1]; [13]
  mutagenic effects (revertant colonies): no mutagenic effects were detected
[2]; [14]
  mutagenic effects (revertant colonies): no mutagenic effects were detected
[3]
  expression of HO-1: increased expression of HO-1
Caco-2 cells [4]
  relative cell viability: 43 % of the control
Caco-2 cells [5]
  concentration needed to induce DNA strand breaks: 100 µM
[6]
  time until absorbance signals in the UV–Vis spectrum are reduced: two

## O=C1OC(C(O)CO)C(=O)C1=O (stereo not shown) [DHAA, dehydroascorbic acid]
BALB/c 3T3 cells [7]
  concentration at which cytotoxicity starts: 750 µM
BALB/c 3T3 cells [8]; 100 µM NaNO2
  cell-transforming potential: no cell-transforming potential

## O=CCC=O [MDA, malondialdehyde]
[9]
  mutagenicity in the HGPRT assay: mutagenic potential

## C=CC1=C(C)c2cc3[n-]c(cc4[n-]c(cc5nc(cc1n2)C(C)=C5C=C)c(C)c4CCC(=O)O)c(CCC(=O)O)c3C.O.[Fe+2] [hematin]
[1]; [13]
  mutagenic effects (revertant colonies): no mutagenic effects were detected
[2]; [14]
  mutagenic effects (revertant colonies): no mutagenic effects were detected
BALB/c 3T3 cells [7]; up to the maximum concentration of 200 µM
  cytotoxicity: no sign of cytotoxicity
BALB/c 3T3 cells [8]; 150 µM, treatment for three days
  amount of type III foci compared to the corresponding solvent control: significant increase
[3]
  expression of HO-1: increased expression of HO-1
Caco-2 cells [4]; Caco-2 cells, 24 h, WST-1
  relative cell viability: 45 % of the control
BALB/c 3T3 cells [10]
  concentration range with statistically significant increase of tail intensity: 10 to 100 µM
  increase of the tail intensity (genotoxic effect): dose-dependent increase of the tail intensity with statistically significant effects
Caco-2 cells [5]
  genotoxic effects (tail intensity): exhibiting genotoxic effects

## O=N[O-].[Na+] [sodium nitrite, Sodium nitrite]
[1]
  mutagenic effects (revertant colonies): no genotoxic, mutagenic or cell-transforming effects
[2]
  mutagenic effects (revertant colonies): no genotoxic, mutagenic or cell-transforming effects
BALB/c 3T3 cells [7]
  concentration at which cytotoxicity starts: 6000 µM
BALB/c 3T3 cells [8]; 100 µM NaNO2
  cell-transforming potential: no cell-transforming potential
BALB/c 3T3 cells [8]; 100 µM NaNO2, listed as nitrite
  cell-transforming potential: no genotoxic, mutagenic or cell-transforming effects
[11]
  concentrations at which mutagenic in the HPRT assay: 1 to 10 mM
Murine cell lines
  induction of DNA single strand breaks: did not induce DNA single strand breaks
BALB/c 3T3 cells [10]
  increase of the tail intensity (genotoxic effect): no genotoxic, mutagenic or cell-transforming effects
Caco-2 cells [5]
  genotoxic effects (tail intensity): no genotoxic, mutagenic or cell-transforming effects
CHO-K1-BH4 cells
  frequencies of mutations compared to the solvent controls: no genotoxic, mutagenic or cell-transforming effects
BALB/c 3T3 cells [12]
  concentrations leading to malignant transformation of BALB/c 3T3 cells: 1 to 10 mM

— PMC7603461, “Synthesis and in vitro characterization of the genotoxic, mutagenic and cell-transforming potential of nitrosylated heme” (Archives of Toxicology, 2020)
